In one series the test system is E. coli. Put plainly: E. coli CO tolerance experiment (anaerobic growth with saturating CO). It counts as cell-based. As to conditions: levels achievable at normal atmospheric pressure. Here is the method:
To test whether or not E. coli can grow anaerobically in the presence of saturating amounts of CO, cultures were set up in 120 ml serum bottles with 50 ml of Terrific Broth medium (plus reducing solution, NiCl2, Fe(II)NH4SO4, cyanocobalamin, IPTG, and chloramphenicol) as described above for anaerobic microbiology in small volumes. One half of these bottles were equilibrated with nitrogen gas for 30 min. and one half was equilibrated with CO gas for 30 min. An empty vector (pZA33) was used as a control, and cultures containing the pZA33 empty vector as well as both ACS90 and ACS91 were tested with both N2 and CO. All were inoculated and grown for 36 hrs with shaking (250 rpm) at 37° C. […] The bulk of the observed growth occurred overnight with a long lag.

The conditions of series [1]: 20° C. and 1 atm; cited from earlier work.

Each structure is given as a SMILES string.

The values below come from US11572564B2, “Microorganisms for producing 1,4-butanediol and methods related thereto” (priority 2011, dated 2023).

Take `[C-]#[O+]` [CO]: in the series with E. coli, the “sensitivity of laboratory strains of E. coli to CO” value is reported as “insensitive”. Moreover, the maximum water solubility in series [1] is 970 µM.
